Test results as given in ChEMBL document CHEMBL1201862, “PubChem BioAssay data set” (2004).
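Tested at 5 concentrations; 48 h exposure; 96-well plates; endpoints linearly interpolated, else capped at highest concentration. GI50 = concentration required for 50% inhibition of growth.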 Calls of active or inactive are those of the source. Rule as the data show it: active = GI50 up to about 1.1 µM and inactive = higher.

Experiments:
Test in all cases: NCI tumour cell line growth inhibition, 48 h
OVCAR-8 = test system: OVCAR-8
M14 = test system: M14
U-251 = test system: U-251
SW-620 = test system: SW-620
SN12C = test system: SN12C
KM12 = test system: KM12
A549 = test system: A549
UO-31 = test system: UO-31
MCF7 = test system: MCF7
CCRF-CEM = test system: CCRF-CEM
A498 = test system: A498
ACHN = test system: ACHN
SK-OV-3 = test system: SK-OV-3
NCI-H460 = test system: NCI-H460
SNB-19 = test system: SNB-19
HOP-62 = test system: HOP-62
HT-29 = test system: HT-29
LOX IMVI = test system: LOX IMVI
SNB-75 = test system: SNB-75
HCC 2998 = test system: HCC 2998

Compound | GI50 (OVCAR-8) | GI50 (M14) | GI50 (U-251) | GI50 (SW-620) | GI50 (SN12C) | GI50 (KM12) | GI50 (A549) | GI50 (UO-31) | GI50 (MCF7) | GI50 (CCRF-CEM) | GI50 (A498) | GI50 (ACHN) | GI50 (SK-OV-3) | GI50 (NCI-H460) | GI50 (SNB-19) | GI50 (HOP-62) | GI50 (HT-29) | GI50 (LOX IMVI) | GI50 (SNB-75) | GI50 (HCC 2998)
c1ccc(CCN2CCCCCC2)nc1 | > 100 µM (inactive) | > 100 µM (inactive) | > 100 µM (inactive) | > 100 µM (inactive) | > 100 µM (inactive) | > 100 µM (inactive) | > 100 µM (inactive) | > 100 µM (inactive) | > 100 µM (inactive) | > 100 µM (inactive) | > 100 µM (inactive) | > 100 µM (inactive) | > 100 µM (inactive) | > 100 µM (inactive) | > 100 µM (inactive) | > 100 µM (inactive) | > 100 µM (inactive) | > 100 µM (inactive) |  | 
C(=C\c1cccs1)/c1cccc(/C=C/c2cccs2)n1 | 60.5 µM (inactive) | > 100 µM (inactive) | 54.7 µM (inactive) | 24.8 µM (inactive) | 61 µM (inactive) | 4.3 µM (inactive) | 60.7 µM (inactive) | 30.3 µM (inactive) | 3.55 µM (inactive) | > 100 µM (inactive) |  | 8.11 µM (inactive) | > 100 µM (inactive) | 36.4 µM (inactive) | 78.9 µM (inactive) | 83 µM (inactive) | > 100 µM (inactive) | > 100 µM (inactive) | 19.3 µM (inactive) | 56.9 µM (inactive)
Cc1cnoc1/N=C1\C=C(Nc2oncc2C)C(=O)c2ccccc21 | 30.8 µM (inactive) | > 100 µM (inactive) | > 100 µM (inactive) | > 100 µM (inactive) | > 100 µM (inactive) | > 100 µM (inactive) | > 100 µM (inactive) | 62.1 µM (inactive) |  | > 100 µM (inactive) | > 100 µM (inactive) | > 100 µM (inactive) | > 100 µM (inactive) | > 100 µM (inactive) | > 100 µM (inactive) | > 100 µM (inactive) | > 100 µM (inactive) | 23.3 µM (inactive) | > 100 µM (inactive) | > 100 µM (inactive)
C=C(C)CNC(=S)N(N)c1ccc2ccccc2c1 | > 100 µM (inactive) | > 100 µM (inactive) | > 100 µM (inactive) | > 100 µM (inactive) | > 100 µM (inactive) | 13.6 µM (inactive) | > 100 µM (inactive) | 61.1 µM (inactive) | 26.5 µM (inactive) | 95.3 µM (inactive) |  | 34.5 µM (inactive) | > 100 µM (inactive) | > 100 µM (inactive) | > 100 µM (inactive) | > 100 µM (inactive) | 65.3 µM (inactive) | > 100 µM (inactive) | > 100 µM (inactive) | 47.3 µM (inactive)
COC1OC(COC(=O)NCCCCC(=O)C(F)(F)F)C(O)C(O)C1O (stereo not given) |  | > 100 µM (inactive) | > 100 µM (inactive) | > 100 µM (inactive) | > 100 µM (inactive) | > 100 µM (inactive) | > 100 µM (inactive) | > 100 µM (inactive) | > 100 µM (inactive) | > 100 µM (inactive) |  | > 100 µM (inactive) | > 100 µM (inactive) | > 100 µM (inactive) | > 100 µM (inactive) | > 100 µM (inactive) | > 100 µM (inactive) | > 100 µM (inactive) | > 100 µM (inactive) | > 100 µM (inactive)
CC(=O)OCc1cncn1S(=O)(=O)c1ccc(C)cc1 | > 91.4 µM (inactive) | 42.2 µM (inactive) | > 87.7 µM (inactive) | 36.4 µM (inactive) | > 91.2 µM (inactive) | 31.7 µM (inactive) | > 100 µM (inactive) | > 100 µM (inactive) | > 25.4 µM (inactive) | 30.4 µM (inactive) |  | > 100 µM (inactive) | > 100 µM (inactive) | 29.9 µM (inactive) | > 100 µM (inactive) | > 100 µM (inactive) | 33.7 µM (inactive) | 30.8 µM (inactive) | > 100 µM (inactive) | > 62.4 µM (inactive)
Cc1cc(NS(=O)(=O)c2ccc(NC(=O)c3cccc4c(NNc5ccc(S(=O)(=O)N=C(N)N)cc5)c5ccccc5nc34)cc2)no1 | 51.1 µM (inactive) | > 100 µM (inactive) | 22.6 µM (inactive) | 60 µM (inactive) | 70.3 µM (inactive) | 36 µM (inactive) | > 100 µM (inactive) | 54.2 µM (inactive) | 43.7 µM (inactive) | 29 µM (inactive) |  | 50.4 µM (inactive) | 54.2 µM (inactive) | 51.9 µM (inactive) | 45.6 µM (inactive) | > 100 µM (inactive) | 30.5 µM (inactive) | 34.6 µM (inactive) | 28.2 µM (inactive) | 30.5 µM (inactive)
O=C(NN1C(=O)c2ccccc2C1=O)c1ccccc1Nc1ccccc1C(=O)NN1C(=O)c2ccccc2C1=O | > 100 µM (inactive) | > 100 µM (inactive) | > 100 µM (inactive) | > 100 µM (inactive) | > 100 µM (inactive) | > 100 µM (inactive) |  | > 100 µM (inactive) | > 100 µM (inactive) | > 100 µM (inactive) |  | > 100 µM (inactive) |  | > 100 µM (inactive) | > 100 µM (inactive) | > 100 µM (inactive) | > 100 µM (inactive) | > 100 µM (inactive) | > 100 µM (inactive) | > 100 µM (inactive)
COc1cc(/C=C2\N=C(c3ccccc3)N(c3nc4cc(C)c(C)cc4s3)C2=O)ccc1O | 47.4 µM (inactive) | 47.4 µM (inactive) | 30.8 µM (inactive) | 35.5 µM (inactive) | 25.8 µM (inactive) | 17.8 µM (inactive) | 40.7 µM (inactive) | 40.3 µM (inactive) | 11.2 µM (inactive) | 20.5 µM (inactive) |  | 28.3 µM (inactive) | > 100 µM (inactive) | 27.4 µM (inactive) | 74 µM (inactive) | 74.1 µM (inactive) | 31.1 µM (inactive) | 30.5 µM (inactive) | 24.9 µM (inactive) | 27 µM (inactive)
CC(=O)C1CC=C(C)CC1 (stereo not given) | > 100 µM (inactive) | > 100 µM (inactive) | > 100 µM (inactive) | > 100 µM (inactive) | > 100 µM (inactive) | > 100 µM (inactive) | > 100 µM (inactive) | > 100 µM (inactive) |  | > 100 µM (inactive) | > 100 µM (inactive) | > 100 µM (inactive) | > 100 µM (inactive) | > 100 µM (inactive) | > 100 µM (inactive) | > 100 µM (inactive) | > 100 µM (inactive) | > 100 µM (inactive) | > 100 µM (inactive) | > 100 µM (inactive)
O=C1O/C(=C(/Br)c2ccc(Cl)c(Cl)c2)c2ccccc21 | > 10 µM (inactive) | > 10 µM (inactive) | > 10 µM (inactive) | > 10 µM (inactive) | > 10 µM (inactive) | > 10 µM (inactive) | > 10 µM (inactive) | > 10 µM (inactive) | 7.67 µM (inactive) | > 10 µM (inactive) |  | > 10 µM (inactive) | > 10 µM (inactive) | > 10 µM (inactive) | > 10 µM (inactive) | > 10 µM (inactive) | > 10 µM (inactive) | > 10 µM (inactive) | > 10 µM (inactive) | > 10 µM (inactive)
O=C1c2ccc3c4ccccc4n(-c4ccccc4)c3c2C(=O)N1c1ccc(Cl)cc1 | > 100 µM (inactive) | > 100 µM (inactive) | > 100 µM (inactive) | > 100 µM (inactive) | > 100 µM (inactive) | > 100 µM (inactive) | > 100 µM (inactive) | > 100 µM (inactive) |  | > 100 µM (inactive) | > 100 µM (inactive) | > 100 µM (inactive) | > 100 µM (inactive) | > 100 µM (inactive) | > 100 µM (inactive) | > 100 µM (inactive) | 29 µM (inactive) | > 100 µM (inactive) | > 100 µM (inactive) | > 100 µM (inactive)
CC(=O)Nc1ccc2c(c1)C(=O)c1cccc(F)c1-2 | 58.2 µM (inactive) | 50.9 µM (inactive) | 38.6 µM (inactive) | 57.3 µM (inactive) | 42.2 µM (inactive) | 0.401 µM (active) | 49.2 µM (inactive) | 21.2 µM (inactive) | 4.33 µM (inactive) | 38.6 µM (inactive) |  | 36.6 µM (inactive) | > 100 µM (inactive) | 35.4 µM (inactive) | > 100 µM (inactive) | 51.3 µM (inactive) | 35.2 µM (inactive) | 38.2 µM (inactive) | 56.2 µM (inactive) | 
O=C1C=CC(=O)C2C1Cc1ccccc1C2c1ccccc1 (stereo not given) | 25.9 µM (inactive) | 42.8 µM (inactive) | 18.2 µM (inactive) | 27.7 µM (inactive) | 39.7 µM (inactive) | 51.9 µM (inactive) | 30.1 µM (inactive) | 47.1 µM (inactive) |  | 20.3 µM (inactive) | 22.4 µM (inactive) | 50.4 µM (inactive) | > 100 µM (inactive) | 29.9 µM (inactive) | > 100 µM (inactive) | > 100 µM (inactive) | 37.8 µM (inactive) | 41.6 µM (inactive) | 42.7 µM (inactive) | 21.7 µM (inactive)
Cc1cc(C(=C2C=CC(=[N+](C)C)C=C2)c2ccc([N+](C)(C)C)cc2)ccc1N(C)C | 5.08 µM (inactive) | 10.4 µM (inactive) | 5.53 µM (inactive) | 5.31 µM (inactive) | 5.07 µM (inactive) | 4.66 µM (inactive) | 4.33 µM (inactive) | 26.3 µM (inactive) |  | 2.48 µM (inactive) | 18.5 µM (inactive) | 10.7 µM (inactive) | 15.8 µM (inactive) | 3.98 µM (inactive) | 24 µM (inactive) | 25.2 µM (inactive) | 5.08 µM (inactive) | 4.79 µM (inactive) | 2.65 µM (inactive) | 13.8 µM (inactive)
